Experimental data published in patent US6765096B1, “Tricyclic compound having acyloxymethoxycarbonyl side chain” (Shionogi & Co., Ltd., priority 1999, dated 2004).

Assays:
[1] = system: anti-ovalbumin (OVA) IgE antibody production; assay: IgE antibody production inhibiting effects against anti-ovalbumin (OVA); anti-OVA IgE antibody titer (PCA titer); assay type: in vivo, BALB/c mice; conditions: consecutive 10 days, OVA-immunized BALB/c mouse, Log2 of maximum serum dilution giving PCA positive reaction in Wistar rat
Method: Test Example 1 IgE Antibody Production Inhibiting Effects Against Anti-ovalbumin (OVA)
BALB/c mice (female, 8-10 weeks old) and Wistar rats (female, 8-10 weeks old) purchased from Japan SLC (Shizuoka) were used.
2) Method of Immunization
0.2 mL of a solution obtained by suspending 2 μg of ovalbumin (OVA) and 2 mg of aluminium hydroxide gel in a physiological saline was injected in a BALB/c mouse intraperitoneally to immunize it. After ten days, blood was taken from the heart, serum was separated, and stored at −40° C. until the IgE antibody titer was measured.
[…] Administration was carried out for consecutive 10 days from an immunization day to the day before a blood collection day.
4) Measurement of Anti-OVA IgE Antibody Titer (PCA Titer)
The resulting mouse serum was prepared into a 2-fold dilution series using a physiological saline, each 50 μl of which was injected to a pre-haircut Wistar rat intracutaneously at a back. After 24 hours, 0.5 mL of a physiological saline containing 1 mg of OVA and 5 mg of Evans Blue pigment was injected intravenously to induce passive cutaneous anaphylaxis reaction (PCA). After 30 minutes, a maximum dilution rate of the serum showing PCA positive reaction of a pigment spot having a diameter of 5 mm or more was determined, and Log2 of its dilution rate was adopted as a PCA titer. For example, when a serum becomes PCA reaction positive until 2^7-fold dilution, an anti-OVA IgE antibody titer of the mouse is 7.

[2] = Oral absorption test, fasting rat (Test Examples 2 and 3); assay type: in vivo, Jcl:SD male rat; conditions: rat 18 hours fasting
Method: Test Example 2 Oral Absorption Test
(§1) The present compound (I-1) was ground with an agate mortar, which was prepared into an aqueous suspension having the concentration of 10 mg/mL using a 0.5% aqueous methylcellulose solution as a vehicle. Each compound was orally administered to a Jcl:SD male rat (10 weeks old, 18 hours fasting) as a parent compound at a rate of 20 mg/kg. 0.5, 1, 2, 4, 6, 8 and 24 hours after administration, 0.3 mL of blood was taken from a cannula inserted in rat jugular in advance. The blood was centrifuged to obtain a plasma. 0.5 mL of a mixed solution of methanol and acetonitrile (1/1 (w/w)) was added to 0.1 mL of the plasma, proteins were removed therefrom, followed by centrifugation. The supernatant was used as a HPLC sample.
The oral absorbabilities of the present compound (I-163) and its parent compound (II-4) were measured as in Test Example 2.

[3] = Oral absorption test, non-fasting rat (Test Example 4); assay type: in vivo
Method: as §1
Test Example 4 Oral Absorption Test
The oral absorbabilities of the present compound (I-16) and its parent compound (II-1) were measured as in Test Example 2 using a non-fasting rat.

[4] = oral administration, only parent compound (II-1) observed
[5] = plasma concentration of parent compound after oral administration, 20 mg/kg as parent compound
[6] = plasma concentration of parent compound (II-1) after oral administration

## CC(=O)NC(CC(N)=O)C(=O)OCOC(=O)N(CC=C(C)C)c1ccc(-c2cc(C)c(-c3ccc(OCC=C(C)C)nc3)cc2C)c(F)c1 (stereo not drawn) [Compound I-13, 2-acetylamino-succinamic acid [{2-fluoro-2′,5′-dimethyl-4′-[6-(3-methyl-but-2-enyloxy)-pyridin-3-yl]-biphenyl-4-yl}-((E)-3-methyl-but-2-enyl)-carbamoyloxy]-methylester]
[1]; 10 mg/Kg orally
  anti-OVA IgE antibody titer (PCA titer): <0

## CC(C)=CCOc1ccc(-c2cc(C)c(-c3ccc(N(CC=C(C)C)C(=O)OCOC(=O)CCC(N)=O)cc3F)cc2C)cn1 [Compound I-1]
[2]; [4]
  administered prodrug itself in the circulating plasma: not detected
[2]; [5]
  AUC: 32030 ng·h/mL
  Cmax: 2500 ng/mL
[1]; 3 mg/Kg orally
  anti-OVA IgE antibody titer (PCA titer): 7.0
[1]; 10 mg/Kg orally
  anti-OVA IgE antibody titer (PCA titer): 0.8

## CC(=O)NCC(=O)NCC(=O)OCOC(=O)N(CC=C(C)C)c1ccc(-c2cc(C)c(-c3ccc(OCC=C(C)C)nc3)cc2C)c(F)c1 [Compound I-16, (2-acetylamino-ethanoylamino)-acetic acid [{2-fluoro-2′,5′-dimethyl-4′-[6-(3-methyl-but-2-enyloxy)-pyridin-3-yl]-biphenyl-4yl]}-((E)-3-methyl-but-2-enyl)-carbamoyloxy]-methyl ester]
[1]; 10 mg/Kg orally
  anti-OVA IgE antibody titer (PCA titer): <0
[3]; [4]
  administered prodrug itself in the circulating plasma: not detected
[3]; [6]
  AUC: 165520 ng·h/mL
  Cmax: 16020 ng/mL

## CC(=O)NC(CCC(=O)OCOC(=O)N(CC=C(C)C)c1ccc(-c2cc(C)c(-c3ccc(OCC=C(C)C)nc3)cc2C)c(F)c1)C(N)=O (stereo not drawn) [Compound I-6, 4-acetylamino-4-carbamoyl-butyric acid [{2-fluoro-2′,5′-dimethyl-4′-[6-(3-methyl-but-2-enyloxy)-pyridin-3-yl]-biphenyl-4-yl}-(3-methyl-but-2-enyl)-carbamoyloxy]-methyl ester]
[1]; 10 mg/Kg orally
  anti-OVA IgE antibody titer (PCA titer): 1.8

## CC(=O)NC(CCC(N)=O)C(=O)OCOC(=O)N(CC=C(C)C)c1ccc(-c2cc(C)c(-c3ccc(OCC=C(C)C)nc3)cc2C)c(F)c1 (stereo not drawn) [Compound I-15, 2-acetylamino-4-carbamoyl-butyric acid [{2-fluoro-2′,5′-dimethyl-4′-[6-(3-methyl-but-2-enyloxy)-pyridin-3-yl]-biphenyl-4-yl}-((E)-3-methyl-but-2-enyl)-carbamoyloxy]-methyl ester]
[1]; 10 mg/Kg orally
  anti-OVA IgE antibody titer (PCA titer): 0
